Our source for the IC50 values is patent US11884683B2, “Tricyclic heterocycle compounds useful as HIV integrase inhibitors” (Merck Sharp & Dohme LLC, priority 2018, dated 2024).

Each structure is given as a SMILES string.

One assay has as its system HIV-1 (H9/IIIB strain). Nature of the assay: Multiple round HIV-1 infection assay in MT4-GFP cells (wild type cell assay, Viking). The class given is cell-based. Conditions: 0% NHS condition; MT4-GFP cells infected with HIV-1 H9/IIIB; inhibition of reproductive ratio R0, ~48 h and ~72 h post-infection; read-out: WILD TYPE CELL ASSAY Viking IP (0% NHS). As for the experimental part: Assessing Antiviral Potency in a Multiple Round HIV-1 Infection Assay
The antiviral activity of the Examples herein was assessed in an assay that measures the rate of replication of HIV in cell culture, and performed according to the following procedure. HIV-1 replication was monitored using MT4-gag-GFP clone D3 (hereafter designated MT4-GFP), which are MT-4 cells modified to harbor a GFP reporter gene, the expression of which is dependent on the HIV-1 expressed proteins tat and rev. Productive infection of an MT4-GFP cell with HIV-1 results in GFP expression approximately 24 h post-infection. MT4-GFP cells were maintained at 37° C./5% CO2/90% relative humidity in RPMI 1640 supplemented with 10% fetal bovine serum, 100 U/ml penicillin/streptomycin, and 400 μg/ml G418 to maintain the reporter gene. For infections, MT4-GFP cells were placed in the same medium lacking G418 and infected overnight with HIV-1 (H9/IIIB strain) virus at an approximate multiplicity of infection of 0.01 in the same incubation conditions. Cells were then washed and re-suspended in either RPMI 1640 at 2×10^5 cells/mL (0% NHS condition) or 100% normal human serum (NHS) at 2×10^5 cells/mL (100% NHS condition). Compound plates were prepared by dispensing compounds dissolved in DMSO into wells of 384 well poly-D-lysine-coated plates (0.2 μl/well) using an ECHO acoustic dispenser. Each compound was tested in a 10-point serial 3-fold dilution (typical final concentrations: 1050 nM-0.05 nM for 0% NHS condition or […]-2.13 nM for 100% NHS condition). Controls included no inhibitor (DMSO only) and a combination of three antiviral agents (efavirenz, indinavir, an in-house integrase strand transfer inhibitor at final concentrations of […] each). Cells were added ([…]) to compound plates and the infected cells were maintained at 37° C./5% CO2/90% relative humidity.
Infected cells were quantified at two time points, ˜48 h and ˜72 h post-infection, by counting the number of green cells in each well using an Acumen eX3 scanner. The increase in the number of green cells over ˜24 h period gives the reproductive ratio, RO, which is typically 5-15 and has been shown experimentally to be in logarithmic phase (data not shown). Inhibition of R0 is calculated for each well, and IC50s determined by non-linear 4-parameter curve fitting.
Regarding `CCN1CN2CC(O)c3c(C(=O)NCc4c(F)ccc(Cl)c4F)c(=O)c(O)c(n32)C1=O` (stereo not drawn) [Compound 53], the IC50 was found to be 1.1 nM.

On to `COCCN1CN2CC(O)c3c(C(=O)NCc4c(F)ccc(Cl)c4F)c(=O)c(O)c(n32)C1=O` (stereo not drawn) [Compound 44], for which the IC50 was determined as 3.1 nM.

Turning to `CCN1CN2CC(O)c3c(C(=O)NCc4ccc(F)c(Cl)c4F)c(=O)c(O)c(n32)C1=O` (stereo not drawn) [Compound 49], the IC50 is 2 nM.

In the case of `CC1N(C)C(=O)c2c(O)c(=O)c(C(=O)NCc3ccc(F)cc3F)c3n2N1CC3O` (single isomer, unassigned) [Compound 14], the IC50 was 1.4 nM.

Consider `COCCN1CN2CC(O)c3c(C(=O)NCc4cccc(Cl)c4F)c(=O)c(O)c(n32)C1=O` (stereo not drawn) [Compound 42], for which the IC50 is 1.9 nM.

`CC1N(C)C(=O)c2c(O)c(=O)c(C(=O)NCc3c(F)cc(F)cc3F)c3n2N1CC3O` (single isomer, unassigned) [Compound 18]: the IC50 came to 1.6 nM.

With `CCN1C(=O)c2c(O)c(=O)c(C(=O)NCc3ccc(F)cc3)c3n2N(CC3O)C1C` (stereo not drawn) [Compound 88], the IC50 came to 2.9 nM.

As for `CCN1C(=O)c2c(O)c(=O)c(C(=O)NCc3ccc(F)cc3)c3n2N(CC3O)C1C` (single isomer, unassigned) [Compound 86], the IC50 was 1.3 nM.

For the compound `CCN1C(=O)c2c(O)c(=O)c(C(=O)NCc3ccc(C(F)(F)F)cc3)c3n2N(CC3O)C1C` (stereo not drawn) [Compound 80], the IC50 is 219 nM.

Regarding `CCN1CN2CC(O)c3c(C(=O)NCc4ccc(F)c(F)c4F)c(=O)c(O)c(n32)C1=O` (stereo not drawn) [Compound 60], the IC50 was 2.8 nM.

Consider `CCN1CN2CC(O)c3c(C(=O)NCc4c(F)ccc(F)c4F)c(=O)c(O)c(n32)C1=O` (stereo not drawn) [Compound 48], for which the IC50 was 2.3 nM.

With `CN1C(=O)c2c(O)c(=O)c(C(=O)NCc3ccc(F)cc3F)c3n2N(CC3O)C12CCOC2` (stereo not drawn) [Compound 114], the IC50 was found to be 1.9 nM.

Turning to `CCC1N(C)C(=O)c2c(O)c(=O)c(C(=O)NCc3c(F)ccc(Cl)c3F)c3n2N1CC3O` (single isomer, unassigned) [Compound 26], the IC50 turned out to be 3.4 nM.

Consider `CCC1N(C)C(=O)c2c(O)c(=O)c(C(=O)NCc3c(F)ccc(Cl)c3F)c3n2N1CC3O` (stereo not drawn) [Compound 28], for which the IC50 came to 3.3 nM.

Consider `CCN1C(=O)c2c(O)c(=O)c(C(=O)NCc3ccc(C(F)F)cc3)c3n2N(CC3O)C1C` (stereo not drawn) [Compound 76], for which the IC50 worked out at 88 nM.

For the compound `CCN1CN2CC(O)c3c(C(=O)NCc4cccc(Cl)c4F)c(=O)c(O)c(n32)C1=O` (stereo not drawn) [Compound 51], the IC50 was determined as 2.1 nM.

In the case of `COCCN1CN2CC(O)c3c(C(=O)NCc4c(F)cc(F)cc4F)c(=O)c(O)c(n32)C1=O` (stereo not drawn) [Compound 46], the IC50 was found to be 3.7 nM.

`CCN1C(=O)c2c(O)c(=O)c(C(=O)NCc3ccc(C(F)(F)F)cc3)c3n2N(CC3O)C1C` (single isomer, unassigned) [Compound 77]: the IC50 stood at 258 nM.

The same assay, now with this note: Human immunodeficiency virus 1, IIIB, 0% NHS condition; MT4-GFP cells infected with HIV-1 H9/IIIB; inhibition of reproductive ratio R0, ~48 h and ~72 h post-infection; read-out: WILD TYPE CELL ASSAY Viking IP (0% NHS).
On to `CCN1C(=O)c2c(O)c(=O)c(C(=O)NCc3c(F)ccc(F)c3F)c3n2N(CC3O)C1C` (stereo not drawn) [Compound 83], for which the IC50 came out at 2.5 nM.

For `CC1N(C)C(=O)c2c(O)c(=O)c(C(=O)NCc3ccc(F)cc3F)c3n2N1CC3O` (single isomer, unassigned) [Compound 13], the IC50 came out at 1.7 nM.

Take `CCC1N(C)C(=O)c2c(O)c(=O)c(C(=O)NCc3c(F)ccc(Cl)c3F)c3n2N1CC3O` (stereo not drawn) [Compound 27]: the IC50 was found to be 2.9 nM.

As for `CCN1C(=O)c2c(O)c(=O)c(C(=O)NCc3ccc(F)cc3F)c3n2N(CC3O)C1C` (stereo not drawn) [Compound 91], the IC50 stood at 3.3 nM.

On to `CCN1C(=O)c2c(O)c(=O)c(C(=O)NCc3ccc(F)cc3)c3n2N(CC3O)C1C` (single isomer, unassigned) [Compound 85], for which the IC50 turned out to be 2.6 nM.

Turning to `CCN1CN2CC(O)c3c(C(=O)NCc4ccc(F)c(F)c4F)c(=O)c(O)c(n32)C1=O` (stereo not drawn) [Compound 59], the IC50 worked out at 2.5 nM.

Regarding `CCC1N(C)C(=O)c2c(O)c(=O)c(C(=O)NCc3c(F)cc(F)cc3F)c3n2N1CC3O` (stereo not drawn) [Compound 35], the IC50 came out at 2.1 nM.

For the compound `COCCN1CN2CC(O)c3c(C(=O)NCc4ccc(F)c(Cl)c4F)c(=O)c(O)c(n32)C1=O` (stereo not drawn) [Compound 39], the IC50 came out at 2.2 nM.

As for `COCCN1CN2CC(O)c3c(C(=O)NCc4c(F)ccc(Cl)c4F)c(=O)c(O)c(n32)C1=O` (stereo not drawn) [Compound 43], the IC50 was 3.4 nM.

Regarding `COCCN1CN2CC(O)c3c(C(=O)NCc4cccc(Cl)c4F)c(=O)c(O)c(n32)C1=O` (stereo not drawn) [Compound 41], the IC50 amounted to 2.8 nM.

`CC1N(C)C(=O)c2c(O)c(=O)c(C(=O)NCc3ccc(F)cc3F)c3n2N1CC3O` (stereo not drawn) [Compound 15]: the IC50 was 2.6 nM.

With `CN1CN2CC(O)c3c(C(=O)NCc4ccc(F)cc4)c(=O)c(O)c(n32)C1=O` (stereo not drawn) [Compound 5], the IC50 was found to be 3.5 nM.

On to `CN1C(=O)c2c(O)c(=O)c(C(=O)NCc3c(F)ccc(Cl)c3F)c3n2N(CC3O)C12CCOC2` (single isomer, unassigned) [Compound 115], for which the IC50 came to 2 nM.

Take `CCN1C(=O)c2c(O)c(=O)c(C(=O)NCc3ccc(F)cc3F)c3n2N(CC3O)C1C` (single isomer, unassigned) [Compound 89]: the IC50 was found to be 1.9 nM.

Consider `CCN1C(=O)c2c(O)c(=O)c(C(=O)NCc3ccc(C(F)F)cc3)c3n2N(CC3O)C1C` (single isomer, unassigned) [Compound 73], for which the IC50 was 80 nM.

Turning to `CCC1N(C)C(=O)c2c(O)c(=O)c(C(=O)NCc3ccc(F)cc3F)c3n2N1CC3O` (stereo not drawn) [Compound 31], the IC50 stood at 4.9 nM.

`CCN1CN2CC(O)c3c(C(=O)NCc4ccc(F)cc4F)c(=O)c(O)c(n32)C1=O` (stereo not drawn) [Compound 57]: the IC50 is 2.4 nM.

Consider `CC1N(C)C(=O)c2c(O)c(=O)c(C(=O)NCc3c(F)cc(F)cc3F)c3n2N1CC3O` (stereo not drawn) [Compound 19], for which the IC50 is 2.7 nM.
